Active and inactive are the calls of the source. The calls are words filed in the database; no cut-off is given here.
What was measured:
Mus musculus [1] = assay: Toxicity in nude mouse xenografted with human EC109 cells assessed as pathological changes at 5 mg/kg measured after 21 days; type: organism-based; conditions: in vivo, 504 h
Mus musculus [2] = assay: Toxicity in nude mouse xenografted with human EC109 cells assessed as body weight loss at 5 mg/kg measured after 21 days; type: organism-based; conditions: in vivo, 504 h
ECa-109 cell line [3] = assay: Cytotoxicity against human EC109 cells assessed as reduction in cell viability after 24 hrs by MTT assay; type: functional, cell-based
ECa-109 cell line [4] = assay: Induction of apoptosis in human EC109 cells assessed as viable cells at 5 nM after 24 hrs by Annexin V-FITC/propidium iodide staining based flow cytometry (reference value: 96.1%); type: functional; conditions: ECa-109, 24 h, read-out: Activity
ECa-109 cell line [5] = assay: Induction of apoptosis in human EC109 cells assessed as necrotic cells at 5 nM after 24 hrs by Annexin V-FITC/propidium iodide staining based flow cytometry (reference value: 1.6 %); type: functional
ECa-109 cell line [6] = assay: Induction of apoptosis in human EC109 cells assessed as early apoptotic cells at 5 nM after 24 hrs by Annexin V-FITC/propidium iodide staining based flow cytometry (reference value: 1.3%); type: functional
Mus musculus [7] = assay: Toxicity in nude mouse xenografted with human EC109 cells assessed as skin ulceration at 5 mg/kg measured after 21 days; type: organism-based; conditions: in vivo, 504 h
ECa-109 cell line [8] = assay: Antitumor activity against human EC109 cells xenografted in nude mouse assessed as induction of necrosis at 5 mg/kg measured after 21 days by H and E staining based assay; type: functional, organism-based
ECa-109 cell line [9] = assay: Induction of apoptosis in human EC109 cells assessed as nuclear condensation at 5 nM after 24 hrs by Hochest 33258 staining based fluorescent microscopic analysis; type: functional, cell-based
ECa-109 cell line [10] = assay: Induction of apoptosis in human EC109 cells assessed as late apoptotic cells at 5 nM after 24 hrs by Annexin V-FITC/propidium iodide staining based flow cytometry (reference value: 1%); type: functional
ECa-109 cell line [11] = assay: Induction of apoptosis in human EC109 cells assessed as nuclear shrinkage at 5 nM after 24 hrs by Hochest 33258 staining based fluorescent microscopic analysis; type: functional, cell-based

For CC(=O)O[C@H]1C(=O)[C@@]2(C)[C@H]([C@H](OC(=O)c3ccccc3)[C@]3(O)C[C@H](OC(=O)[C@H](O)[C@@H](NC(=O)c4ccccc4)c4ccccc4)C(C)=C1C3(C)C)[C@]1(OC(C)=O)CO[C@@H]1C[C@@H]2O [PACLITAXEL], the Activity (Mus musculus [1]) was “Non-Toxic”, the Activity (Mus musculus [2]) was “Non-Toxic” and the Activity (ECa-109 cell line [3]) was “Dose-dependent effect”. It also gave a viability at 0.005 µM (ECa-109 cell line [4]) of 94.1%, an Activity (ECa-109 cell line [5]) of 0.5% and an Activity (ECa-109 cell line [6]) of 4.5%. The Activity (Mus musculus [7]) was “Non-Toxic”, the Activity (ECa-109 cell line [8]) was “Active” and the Activity (ECa-109 cell line [9]) was “Active”. The Activity (ECa-109 cell line [10]) was 0.9% and the Activity (ECa-109 cell line [11]) was “Active”.
